Patent US4616015A, “Triazine derivatives, and pharmaceutical compositions comprising the same” (Fujisawa Pharmaceutical Co., Ltd., priority 1983, dated 1986)
Where a name gives a salt, the structure may show the parent alone.

What was measured:
platelet aggregation [1] = assay: Inhibition of platelet aggregation induced by collagen, platelet rich plasma (test B); format: cell-based; conditions: Oryctolagus cuniculus, inducer collagen (2.5 μg/ml), rabbit PRP, 37° C., read-out: ID50, platelet aggregation, collagen
Experimental: (§1) Platelet rich plasma (PRP) which contains 6.5-7.5×10^8 platelet/ml was prepared from rabbit blood. To the 200 μl of PRP, 5 μl of calcium chloride (1 mM) and 50 μl of pH 7.4 Tris-acetate solution (5 mM) containing 120 mM NaCl and test compound were added successively, and then stirred for 2 min. at 37° C. To the solution, 5 μl of adenosine diphosphate (ADP) (2.5 μM) or collagen (2.5 μg/ml) was added as an aggregation inducer. Aggregation was measured by using an aggregometer (NKK HEMA TRACER 1).

platelet aggregation [2] = assay: Inhibition of platelet aggregation induced by ADP, platelet rich plasma (test B); format: cell-based; conditions: Oryctolagus cuniculus, inducer ADP (2.5 μM), rabbit PRP, 37° C., read-out: ID50, platelet aggregation, ADP
Experimental: as §1

blood pressure = assay: Antihypertensive activity (test A): maximum decrease of blood pressure in uninephrectomized DOCA/saline hypertensive rats, oral; format: in vivo, male Wister rats
Experimental: Five-week old male Wister rats were uninephrectomized under anesthesia. Deoxycorticosterone acetate (DOCA) (30 mg/kg), suspended in peanut oil, was injected subcutaneously twice a week and 1% saline was substituted for the drinking water. Animals with mean blood pressure 150-200 mmHg were used for experiment between 5 and 7 weeks after surgery.
The test compounds were administered orally. Blood pressure was measured at the femoral artery by means of a pressure transducer and recorded as electrically integrated values of mean arterial pressure.

ethanol ulcer = assay: Ethanol ulcer, area of ulcers (test C); format: in vivo, male Sprague-Dowley rats; conditions: dose c: 32 mg/kg, oral, 30 minutes before ethanol
Experimental: Five male Sprague-Dowley rats, aged 7 weeks and weighing about 200 g, were used per group for the study on ethanol ulcer after the fast for 24 hours.
Test compound was suspended in 0.1% methylcellulose aqueous solution, and the suspension (5 ml/kg) was orally given to each rat.
The control group was given a vehicle, i.e. 0.1% methylcellulose aqueous solution (5 ml/kg), alone in the same way.
Absolute ethanol (5 ml/kg) was orally administered 30 minutes after dosing with test compound, and one hour later, the rats were sacrificed and their stomachs were removed. The area of ulcers of each rat was measured. The mean area (mm^2) in the medicated group was compared with that in the control group.

IC50 (platelet aggregation [1]) | IC50 (platelet aggregation [2]) | Structure (SMILES) | Effect Max (mean ratio of maximum decrease of blood pressure) (blood pressure; dose a: 0.1 mg/kg) | Effect Max (mean ratio of maximum decrease of blood pressure) (blood pressure; dose b: 1 mg/kg) | Effect Max (ulcer area vs control) (ethanol ulcer)
47 nM | 190 nM | CC1NC(=O)NN=C1c1ccc(NCCCN)cc1 (stereo not drawn) [21-(1), 6-[4-(3-aminopropylamino)phenyl]-5-methyl-4,5-dihyro-1,2,4-triazin-3(2H)-one] | – | – | –
16 nM | 68 nM | C=CC(=O)Nc1ccc(C2=NNC(=O)NC2C)cc1 (stereo not drawn) [22-(1), 6-(4-Acryloylaminophenyl)-5-methyl-4,5-dihydro-1,2,4-triazin-3(2H)-one] | – | – | –

The next lines start with the molecule.

Structure (SMILES) | IC50 (platelet aggregation [1]) | IC50 (platelet aggregation [2]) | Effect Max (mean ratio of maximum decrease of blood pressure) (blood pressure; dose a: 0.1 mg/kg) | Effect Max (mean ratio of maximum decrease of blood pressure) (blood pressure; dose b: 1 mg/kg) | Effect Max (ulcer area vs control) (ethanol ulcer)
CC(Cl)C(=O)Nc1ccc(C2=NNC(=O)NC2C)cc1 (stereo not drawn) [5-(7), 6-[4-(2-Chloropropionylamino)phenyl]-5-methyl-4,5-dihydro-1,2,4-triazin-3(2H)-one] | – | – | 18.7% | 51.8% | –
CC1NC(=O)NN=C1c1ccc(NC(=O)CN)cc1 (stereo not drawn) [Example 29, 6-(4-glycyclaminophenyl)-5-methyl-4,5-dihydro-1,2,4-triazin-3(2H)-one hydrochloride] | – | – | 11.1% | 47.5% | –
CC1NC(=O)NN=C1c1ccc(NC(=O)CCC(=O)O)cc1 (stereo not drawn) [13-(4), Sodium 3-[4-(3-methyl-4,5-dihydro-3(2H)-oxo-1,2,4-triazin-6-yl)phenylcarbamoyl]propionate] | – | – | – | – | 67.0%
CC(=O)C(=O)Nc1ccc(C2=NNC(=O)NC2C)cc1 (stereo not drawn) [5-(19), 6-(4-Pyruvoylaminophenyl)-5-methyl-4,5-dihydro-1,2,4-triazin-3(2H)-one] | 5.3 nM | 110 nM | – | – | –
CC1NC(=O)NN=C1c1ccc(NC(=O)[C@@H](C)O)cc1 (stereo partly drawn) [13-(3), 6-(4-D-Lactoylaminophenyl)-5-methyl-4,5-dihydro-1,2,4-triazin-3(2H)-one] | 150 nM | 320 nM | 22% | 50% | –
